The values below come from patent US7728155B2, “Dihydrobenzofuranyl alkanamines and methods for using same as cns agents” (Wyeth LLC, priority 2003, dated 2010).

Structures can show the parent of a compound that is named as a salt.

In series [1] the target is T1, human 5-hydroxytryptamine-2C (h5-HT2C) receptor (Homo sapiens, UniProt P28335).
T1 construct: expressed in transfected cells; host or cells: CHO (Chinese Hamster Ovary) cells; membranes
T1 sequence (P28335 33-458): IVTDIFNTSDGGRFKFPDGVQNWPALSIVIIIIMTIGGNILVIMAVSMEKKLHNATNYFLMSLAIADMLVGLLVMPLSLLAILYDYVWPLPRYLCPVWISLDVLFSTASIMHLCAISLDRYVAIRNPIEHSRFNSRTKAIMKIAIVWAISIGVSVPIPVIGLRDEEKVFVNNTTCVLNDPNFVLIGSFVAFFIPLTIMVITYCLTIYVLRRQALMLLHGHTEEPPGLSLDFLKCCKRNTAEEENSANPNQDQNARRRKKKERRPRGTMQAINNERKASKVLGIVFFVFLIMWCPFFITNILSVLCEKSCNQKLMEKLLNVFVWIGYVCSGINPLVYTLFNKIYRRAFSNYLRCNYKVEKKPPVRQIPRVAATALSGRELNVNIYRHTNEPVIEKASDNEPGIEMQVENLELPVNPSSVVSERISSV
Put plainly: [125I]DOI binding affinity at h5-HT2C receptor, CHO cell membranes. The settings on record: [125I]DOI displacement, CHO membranes expressing h5-HT2C; read-out: 5-HT2C Affinity Ki.

The target in another series is T2, human 5-HT2C receptor (Homo sapiens, UniProt P28335).
T2 sequence (P28335 33-458): T1 sequence (P28335 33-458)
Put plainly: 5-HT2C receptor-stimulated calcium mobilization (FLIPR) in CHO cells. It counts as cell-based. As to conditions: for EC50: calcium mobilization, CHO cells expressing human 5-HT2C, read-out: 5-HT2C Function EC50. On the technique in general: Calcium assays in cells follow changes in intracellular calcium, usually with a dye or a luminescent sensor.

Usually melting point stands for the temperature of the solid-liquid transition. The Ki is a dissociation constant, usually derived from enzyme kinetics or from competition with a known ligand. As usually defined, the EC50 is the midpoint of the concentration-response curve. One may read the Emax as the maximal effect, on the per cent scale that the assay sets.

Take `NCC1Cc2ccc3c(c2O1)CCC3` (racemic) (as salt: hydrochloride) [Example 1, (±)-1-(3,6,7,8-tetrahydro-2H-indeno[4,5-b]furan-2-yl)methanamine]: the melting point was > 230 °C (dec.).

`NCC1Cc2ccc3c(c2O1)CCCC3` (racemic) (as salt: hydrochloride) [Example 4, (±)-1-(2,3,6,7,8,9-hexahydronaphtho[1,2-b]furan-2-yl)methanamine]: the melting point is > 220 °C (dec.).

For the molecule `Cc1cc2c(c3c1CCC3)OC(CN)C2` (racemic) (as salt: hydrochloride) [Example 7, (±)-1-(5-methyl-3,6,7,8-tetrahydro-2H-indeno[4,5-b]furan-2-yl)methanamine], the melting point was > 200 °C (dec.).

Take `NCC1Cc2ccc3ccccc3c2O1` (racemic) (as salt: hydrochloride) [Example 10, (±)-1-(2,3-dihydronaphtho[1,2-b]furan-2-yl)methanamine]: the melting point is > 250 °C (dec.).

As for `NCC1Cc2cc3c(cc2O1)CCCC3` (racemic) (as salt: hydrochloride) [Example 13, (±)-1-(2,3,5,6,7,8-hexahydronaphtho[2,3-b]furan-2-yl)methanamine], the melting point was more than 225 °C.

The molecule `NCC1Cc2c(ccc3c2CCCC3)O1` (racemic) (as salt: hydrochloride) [Example 14, (±)-1-(1,2,6,7,8,9-hexahydronaphtho[2,1-b]furan-2-yl)methanamine] showed a melting point of more than 225 °C.

The molecule `COc1cc2c(c3c1C1CCC3CC1)OC(CN)C2` (racemic) (as salt: hydrochloride) [Example 19, (±)-1-(5-methoxy-2,3,6,7,8,9-hexahydro-6,9-ethanonaphtho[1,2-b]furan-2-yl)methanamine] showed a melting point of more than 210 °C.

Take `NCC1Cc2cc(Cl)c3ccccc3c2O1` (racemic) (as salt: hydrochloride) [Example 23, (±)-1-(5-chloro-2,3-dihydronaphtho[1,2-b]furan-2-yl)methanamine]: the melting point was in the range of 269 to 271 °C.

On to `CNCC1Cc2cc(Cl)c3ccccc3c2O1` (racemic) (as salt: hydrochloride) [Example 24, (±)-1-(5-chloro-2,3-dihydronaphtho[1,2-b]furan-2-yl)-N-methylmethanamine], for which the melting point lay within 224 to 226 °C.

As to `NCC1Cc2c(Cl)cc3c(c2O1)CCC3` (racemic) (as salt: hydrochloride) [Example 25, (±)-1-(4-chloro-3,6,7,8-tetrahydro-2H-indeno[4,5-b]furan-2-yl)methanamine], the melting point lay in the range of 251 to 254 °C.

In the case of `NCC1Cc2cc(Cl)c3c(c2O1)CCC3` (racemic) (as salt: hydrochloride) [Example 29, (±)-1-(5-chloro-3,6,7,8-tetrahydro-2H-indeno[4,5-b]furan-2-yl)methanamine], the melting point is 270 °C (dec.).

For the molecule `CNCC1Cc2c(Cl)cc3c(c2O1)CCC3` (racemic) [Example 28, (±)-1-(4-chloro-3,6,7,8-tetrahydro-2H-indeno[4,5-b]furan-2-yl)-N-methylmethanamine], the melting point was 58 to 60 °C. Further, in series [1], the Ki is 11 nM.

On to `C[C@@H](N)[C@H]1Cc2ccc3c(c2O1)CCC3` (relative stereo) (as salt: hydrochloride) [Example 22, (2R*)-1-[(2R*)-3,6,7,8-tetrahydro-2H-indeno[4,5-b]furan-2-yl]ethylamine], for which the melting point was more than 250 °C.

Regarding `COc1cc2c(c3c1C1CCC3C1)OC(CN)C2` (single isomer, unassigned) (as salt: hydrochloride) [Example 16, (9-methoxy-4-oxatetracyclo[9.2.1.0^2,10.0^3,7]tetradeca-2,7,9-trien-5-yl)methylamine], the melting point is > 180 °C (dec.).

With `COc1cc2c(c3c1C1CCC3C1)OC(CN)C2` (single isomer, unassigned) (as salt: hydrochloride) [Example 17, (9-methoxy-4-oxatetracyclo[9.2.1.0^2,10.0^3,7]tetradeca-2,7,9-trien-5-yl)methylamine], the melting point is > 150 °C (dec.).

As to `Cc1cc2c(c3c1CCC3)OC(CN)C2` (single isomer, unassigned; (+)) (as salt: hydrochloride) [Example 8, (+)-1-(5-methyl-3,6,7,8-tetrahydro-2H-indeno[4,5-b]furan-2-yl)methanamine], the melting point is more than 220 °C.

As to `COc1cc2c(c3c1C1CCC3CC1)OC(CN)C2` (single isomer, unassigned; (+)) (as salt: hydrochloride) [Example 20, (+)-1-(5-methoxy-2,3,6,7,8,9-hexahydro-6,9-ethanonaphtho[1,2-b]furan-2-yl)methanamine], the melting point was more than 220 °C.

Consider `NCC1Cc2cc(Cl)c3c(c2O1)CCC3` (single isomer, unassigned; (-)) (as salt: hydrobromid) [Example 30, (−)-1-(5-chloro-3,6,7,8-tetrahydro-2H-indeno[4,5-b]furan-2-yl)methanamine], for which the melting point is more than 330 °C.

`NCC1Cc2c(Cl)cc3c(c2O1)CCC3` (single isomer, unassigned; (-)) (as salt: hydrochloride) [Example 26, (−)-1-(4-chloro-3,6,7,8-tetrahydro-2H-indeno[4,5-b]furan-2-yl)methanamine] came in with a melting point of 265 to 268 °C.

For `NCC1Cc2cc(Cl)c3c(c2O1)CCC3` (single isomer, unassigned; (-)) [Example 30, (−)-1-(5-chloro-3,6,7,8-tetrahydro-2H-indeno[4,5-b]furan-2-yl)methanamine], the EC50 at human 5-HT2C receptor turned out to be 234 nM. In addition, the “5-HT2C Function Emax (%)” value on human 5-HT2C receptor (percentage of the response to a maximally effective concentration of 5-HT) amounted to 80%. For the same molecule, the Ki in series [1] stood at 6 nM.

Consider `COc1cc2c(c3c1C1CCC3C1)OC(CN)C2` (centres unmarked) [Example 15, (9-methoxy-4-oxatetracyclo[9.2.1.0^2,10.0^3,7]tetradeca-2,7,9-trien-5-yl)methylamine], for which the Emax on human 5-HT2C receptor (CHO, percentage of the response to a maximally effective concentration of 5-HT, read-out: 5-HT2C Function Emax (%)) was 100%. Also, at human 5-HT2C receptor, the EC50 is 17 nM. Moreover, the Ki in series [1] came to 9 nM.
